Laboratory results from patent publication US8258114B2, “Modulation of glucose-6-phosphatase translocase expression” (Isis Pharmaceuticals, Inc., priority 2004, dated 2012).
Where two headings read alike, the source gives them in different places.

Key:
[1] = Plasma lipids (cholesterol, triglycerides, free fatty acids) in ZDF rats (Table 21); assay type: in vivo, rat
Description: (§1) Saline-injected animals served as a control treatment group.
To further assess the physiological effects resulting from inhibition of target mRNA with antisense oligonucleotide alone or in combination with rosiglitazone, the rats were evaluated throughout the treatment period for plasma free fatty acids, plasma cholesterol, and plasma triglyceride levels. Free fatty acids, triglycerides and cholesterol were measured by routine clinical analyzer instruments (e.g. Olympus Clinical Analyzer, Melville, N.Y.). Glucose levels were measured using a glucose analyzer, for example a YSI glucose analyzer (YSI Scientific, Yellow Springs, Ohio).

[2] = rat, in vivo
Description: For three weeks, male Sprague-Dawley rats were injected twice-weekly with doses of 12.5 mg/kg, 25 mg/kg, or 50 mg/kg of ISIS 145760, ISIS 359543, or ISIS 366228. Each treatment group was comprised of 4 animals. Animals which received twice weekly injections of saline served as controls.
Body weight was monitored throughout the study period. […] Tissue weights were also measured at the end of the study.

aged Zucker fa/fa rats = assay: Plasma glucose levels of ZDF rats, alone or in combination with rosiglitazone (Table 16); assay type: in vivo, rat
Description: as §1
(§2) Plasma glucose levels were evaluated at the beginning of the study (Wk 0), during the first week of treatment (Wk 1), during the third week of treatment (Wk 3), and during the fifth week of treatment (Wk 5).

[3] = as above; assay type: in vivo, rat; conditions: alone or with Rosi
Description: as §1, §2

[4] = Plasma glucose, cholesterol and triglycerides in normal Sprague-Dawley rats (Table 14); assay type: in vivo, rat; design: plasma GLUCOSE WK 0 / plasma GLUCOSE WK 3: unit not given beside the values
Description: Each treatment group was comprised of 4 animals.
To further assess the physiological effects resulting from inhibition of target mRNA, the rats were evaluated at the beginning (Wk 0) and at the end (Wk 3) of the treatment period for plasma glucose, plasma cholesterol, and plasma triglyceride levels. Triglycerides and cholesterol were measured by routine clinical analyzer instruments (e.g. Olympus Clinical Analyzer, Melville, N.Y.). Glucose levels were measured using a glucose analyzer, for example a YSI glucose analyzer (YSI Scientific, Yellow Springs, Ohio). Results are presented in Table 14 as the average level of plasma glucose, plasma cholesterol (CHOL), or plasma triglycerides (TRIG) measured per treatment group.

## GTGCTTGGCGATGGTACTGA (chemistry not given here) [ISIS 366228]
[1]; Wk 0, ISIS 366228 12.5 mg/kg
  plasma cholesterol (CHOL): 207 mg/dL
  plasma triglycerides (TRIG): 460 mg/dL
[1]; Wk 0, ISIS 366228 25 mg/kg
  plasma cholesterol (CHOL): 210 mg/dL
  plasma triglycerides (TRIG): 470 mg/dL
[1]; Wk 1, ISIS 366228 12.5 mg/kg
  plasma cholesterol (CHOL): 201 mg/dL
  plasma triglycerides (TRIG): 379 mg/dL
[1]; Wk 1, ISIS 366228 25 mg/kg
  plasma cholesterol (CHOL): 196 mg/dL
  plasma triglycerides (TRIG): 307 mg/dL
[1]; Wk 3, ISIS 366228 12.5 mg/kg
  plasma cholesterol (CHOL): 196 mg/dL
  plasma triglycerides (TRIG): 416 mg/dL
[1]; Wk 3, ISIS 366228 25 mg/kg
  plasma cholesterol (CHOL): 206 mg/dL
  plasma triglycerides (TRIG): 354 mg/dL
[1]; Wk 5, ISIS 366228 12.5 mg/kg
  plasma cholesterol (CHOL): 176 mg/dL
  plasma triglycerides (TRIG): 478 mg/dL
[1]; Wk 5, ISIS 366228 25 mg/kg
  plasma cholesterol (CHOL): 183 mg/dL
  plasma triglycerides (TRIG): 472 mg/dL
[1]; compared with saline or rosiglitazone alone
  plasma cholesterol (in words): prevented increases in plasma cholesterol
[2]; 12.5 mg/kg
  Fat weight: 1.6 grams
[2]; 25 mg/kg
  Fat weight: 1.5 grams
[2]; 50 mg/kg
  Fat weight: 1.1 grams
  Kidney weight: 3 grams
  Liver weight: 15 grams
  Spleen weight: 1.1 grams
Aged Zucker fa/fa rats
  plasma glucose over the course of the study (in words): caused reductions in plasma glucose
[3]; ISIS 366228 12.5 mg/kg, Wk 0, saline 571
  Plasma glucose: 570 mg/dL
[3]; ISIS 366228 12.5 mg/kg, Wk 1, saline 549
  Plasma glucose: 549 mg/dL
[3]; ISIS 366228 12.5 mg/kg, Wk 3, saline 552
  Plasma glucose: 547 mg/dL
[3]; ISIS 366228 12.5 mg/kg, Wk 5, saline 536
  Plasma glucose: 532 mg/dL
[3]; ISIS 366228 25 mg/kg, Wk 0
  Plasma glucose: 569 mg/dL
[3]; ISIS 366228 25 mg/kg, Wk 1
  Plasma glucose: 542 mg/dL
[3]; ISIS 366228 25 mg/kg, Wk 3
  Plasma glucose: 507 mg/dL
[3]; ISIS 366228 25 mg/kg, Wk 5
  Plasma glucose: 488 mg/dL
[4]; 12.5 mg/kg twice weekly, saline 58
  plasma cholesterol (CHOL) WK 3: 49
[4]; 12.5 mg/kg twice weekly, saline 69
  plasma triglycerides (TRIG) WK 0: 54
[4]; 12.5 mg/kg twice weekly, saline 74
  plasma cholesterol (CHOL) WK 0: 70
[4]; 12.5 mg/kg twice weekly, saline 135
  plasma GLUCOSE WK 0: 147
[4]; 12.5 mg/kg twice weekly, saline 139
  plasma GLUCOSE WK 3: 146
[4]; 12.5 mg/kg twice weekly, saline 140
  plasma triglycerides (TRIG) WK 3: 84
[4]; 25 mg/kg twice weekly
  plasma GLUCOSE WK 0: 148
  plasma GLUCOSE WK 3: 149
  plasma cholesterol (CHOL) WK 0: 93
  plasma cholesterol (CHOL) WK 3: 70
  plasma triglycerides (TRIG) WK 0: 56
  plasma triglycerides (TRIG) WK 3: 76
[4]; 50 mg/kg twice weekly
  plasma GLUCOSE WK 0: 137
  plasma GLUCOSE WK 3: 139
  plasma cholesterol (CHOL) WK 0: 76
  plasma cholesterol (CHOL) WK 3: 54
  plasma triglycerides (TRIG) WK 0: 65
  plasma triglycerides (TRIG) WK 3: 64
[4]; 12.5 to 50 mg/kg, three weeks
  plasma triglycerides (in words): prevented the increases in triglycerides observed in saline-treated animals
